From ChEMBL document CHEMBL3351982, “Microwave-assisted synthesis and biological evaluation of 3,4-diaryl maleic anhydride/N-substituted maleimide derivatives as combretastatin A-4 analogues” (Bioorg Med Chem Lett, 2015)

Assays:
[1] = test system: KB; assay: Cytotoxicity against human KB cells assessed as cell growth inhibition after 72 hrs by MTT assay; assay type: functional, cell-based
[2] = Cytotoxicity against human SGC7901 cells assessed as cell growth inhibition after 72 hrs by MTT assay; assay type: functional, cell-based; details: SGC-7901, 72 h
[3] = Cytotoxicity against human HT1080 cells assessed as cell growth inhibition after 72 hrs by MTT assay; assay type: functional, cell-based; details: HT-1080, 72 h
[4] = target: Tubulin (Bos taurus, UniProt Q6B856+Q862L2+Q862F3); assay: (§1) Inhibition of bovine brain tubulin polymerization
[5] = target: Tubulin (Bos taurus) (UniProt Q6B856+Q862L2+Q862F3); assay: as §1

COc1ccc(C2=C(c3cc(OC)c(OC)c(OC)c3)C(=O)N(OC)C2=O)cc1N
IC50 [1]: > 30 µM
IC50 [2]: > 30 µM
IC50 [3]: > 30 µM

COc1ccc(C2=C(c3cc(OC)c(OC)c(OC)c3)C(=O)N(C)C2=O)cc1N
IC50 [1]: 1.3 µM
IC50 [2]: 1.5 µM
IC50 [3]: 0.75 µM

COc1ccc(C2=C(c3cc(OC)c(OC)c(OC)c3)C(=O)OC2=O)cc1O
IC50 [1]: > 30 µM
IC50 [2]: 27.9 µM
IC50 [3]: > 30 µM

COc1ccc(C2=C(c3cc(OC)c(OC)c(OC)c3)C(=O)N(O)C2=O)cc1O
IC50 [1]: 6.7 µM
IC50 [2]: 4.5 µM
IC50 [3]: 2.4 µM

COc1ccc(C2=C(c3cc(OC)c(OC)c(OC)c3)C(=O)N(O)C2=O)cc1N
IC50 [4]: 3 µM
inhibition [5]: Dose-dependent effect
IC50 [1]: 1.1 µM
IC50 [2]: 1.3 µM
IC50 [3]: 0.65 µM

COc1cc(C2=C(c3ccc4ccccc4c3)C(=O)N(C)C2=O)cc(OC)c1OC
IC50 [1]: 16.7 µM
IC50 [2]: 12.3 µM
IC50 [3]: 22.5 µM

COc1ccc(/C=C\c2cc(OC)c(OC)c(OC)c2)cc1O [COMBRETASTATIN A4]
IC50 [2]: 0.028 µM
IC50 [3]: 0.008 µM

COc1ccc(C2=C(c3cc(OC)c(OC)c(OC)c3)C(=O)N(OC)C2=O)cc1O
IC50 [1]: > 30 µM
IC50 [2]: > 30 µM
IC50 [3]: > 30 µM

COc1ccc(C2=C(c3cc(OC)c(OC)c(OC)c3)C(=O)N(OC)C2=O)cc1
IC50 [1]: > 30 µM
IC50 [2]: > 30 µM
IC50 [3]: > 30 µM

COc1ccc(C2=C(c3cc(OC)c(OC)c(OC)c3)C(=O)OC2=O)cc1N
IC50 [1]: 2.3 µM
IC50 [2]: 1.6 µM
IC50 [3]: 2.4 µM

COc1ccc(C2=C(c3cc(OC)c(OC)c(OC)c3)C(=O)N(C)C2=O)cc1O
IC50 [1]: 3 µM
IC50 [2]: 2.5 µM
IC50 [3]: 13.3 µM

COc1ccc(C2=C(c3cc(OC)c(OC)c(OC)c3)C(=O)OC2=O)cc1
IC50 [1]: 10.8 µM
IC50 [2]: 13.2 µM
IC50 [3]: 16.5 µM

COc1ccc(C2=C(c3cc(OC)c(OC)c(OC)c3)C(=O)N(O)C2=O)cc1
IC50 [1]: 5.6 µM
IC50 [2]: 5.3 µM
IC50 [3]: 4.1 µM

COc1ccc(C2=C(c3cc(OC)c(OC)c(OC)c3)C(=O)N(C)C2=O)cc1
IC50 [1]: 14.2 µM
IC50 [2]: 12.3 µM
IC50 [3]: 15.6 µM

COc1cc(C2=C(c3ccc4ccccc4c3)C(=O)N(O)C2=O)cc(OC)c1OC
IC50 [1]: 10.1 µM
IC50 [2]: 16.5 µM
IC50 [3]: 6.4 µM

COc1cc(C2=C(c3ccc4ccccc4c3)C(=O)N(OC)C2=O)cc(OC)c1OC
IC50 [1]: > 30 µM
IC50 [2]: > 30 µM
IC50 [3]: > 30 µM

COc1cc(C2=C(c3ccc4ccccc4c3)C(=O)OC2=O)cc(OC)c1OC
IC50 [1]: > 30 µM
IC50 [2]: > 30 µM
IC50 [3]: > 30 µM
